Experimental data reported in PubChem BioAssay AID330 (DTP/NCI, 2004).
Where “and” joins values, the source holds several entries; their conditions need not be identical. Equal entries are not always repeated. Toxic doses and inconclusive results are not listed. How the source made its calls: active means survival T/C of 150% or more; inactive means T/C below 125% in these data.

Test system: P388 leukemia ip, CD2F1 mice, survival T/C
Assay: NCI In Vivo Anticancer Drug Screen. Data for tumor model P388 Leukemia (intraperitoneal) in CD2F1 (CDF1) mice
Conditions: endpoint: median survival time, higher = longer survival
Procedure, shortened: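 Mice carrying the transplanted tumor received test compound or vehicle. Survival was recorded in each group, and the value is the treated-group measurement divided by that of the vehicle-treated control group.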

[1] = dose: 50.0 mg/kg/injection, schedule: Q01DX005 (ip), vehicle: saline with Tween-80
[2] = dose: 100.0 mg/kg/injection, schedule: Q01DX005 (ip), vehicle: saline with Tween-80
[3] = dose: 200.0 mg/kg/injection, schedule: Q01DX005 (ip), vehicle: saline with Tween-80
[4] = dose: 50.0 mg/kg/injection, schedule: Q01DX009 (ip), vehicle: Klucel (hydroxypropylcellulose) (HPC)
[5] = dose: 100.0 mg/kg/injection, schedule: Q01DX009 (ip), vehicle: Klucel (hydroxypropylcellulose) (HPC)
[6] = dose: 200.0 mg/kg/injection, schedule: Q01DX009 (ip), vehicle: Klucel (hydroxypropylcellulose) (HPC)
[7] = dose: 50.0 mg/kg/injection, schedule: Q01DX009 (ip), vehicle: saline with Tween-80
[8] = dose: 100.0 mg/kg/injection, schedule: Q01DX009 (ip), vehicle: saline with Tween-80
[9] = dose: 200.0 mg/kg/injection, schedule: Q01DX009 (ip), vehicle: saline with Tween-80
[10] = dose: 50.0 mg/kg/injection, schedule: Q01DX009 (ip), vehicle: saline
[11] = dose: 100.0 mg/kg/injection, schedule: Q01DX009 (ip), vehicle: saline
[12] = dose: 100.0 mg/kg/injection, schedule: Q04DX002 (ip), vehicle: saline with Tween-80
[13] = dose: 200.0 mg/kg/injection, schedule: Q01DX009 (ip), vehicle: saline
[14] = dose: 200.0 mg/kg/injection, schedule: Q04DX002 (ip), vehicle: saline with Tween-80
[15] = dose: 25.0 mg/kg/injection, schedule: Q01DX009 (ip), vehicle: saline with Tween-80

Measured: T/C

O=C/C=C/C1C=Cc2c3c(c(O)c(O)c2C(=O)C1O)OCC=C3 (configuration not stated)
inactive: dose: 6.0 mg/kg/injection, schedule: Q01DX009 (ip), vehicle: Klucel (hydroxypropylcellulose) (HPC) 94 % of control | dose: 12.0 mg/kg/injection, schedule: Q01DX009 (ip), vehicle: Klucel (hydroxypropylcellulose) (HPC) 100 % of control | dose: 24.0 mg/kg/injection, schedule: Q01DX009 (ip), vehicle: Klucel (hydroxypropylcellulose) (HPC) 97 % of control | dose: 48.0 mg/kg/injection, schedule: Q01DX009 (ip), vehicle: Klucel (hydroxypropylcellulose) (HPC) 104 % of control

COC1=CC23CC(CC(c4cc(OC)c(OC)c(OC)c4)C2C)OC3=CC1=O (configuration not stated)
inactive: dose: 4.38 mg/kg/injection, schedule: Q01DX005 (ip), vehicle: Klucel (hydroxypropylcellulose) (HPC) 96 % of control | dose: 8.75 mg/kg/injection, schedule: Q01DX005 (ip), vehicle: Klucel (hydroxypropylcellulose) (HPC) 102 % of control | dose: 17.5 mg/kg/injection, schedule: Q01DX005 (ip), vehicle: Klucel (hydroxypropylcellulose) (HPC) 106 % of control

CCN=C1NS(=O)(=O)c2ccccc21
inactive: [1] 100 % of control | [2] 97 % of control | [3] 100 % of control

CN1C(=O)NC(=O)C(=C2C=C(c3ccccc3)C(C#N)(c3ccccc3)C(c3ccccc3)=C2)C1=O (configuration not stated)
inactive: dose: 50.0 mg/kg/injection, schedule: Q01DX005 (ip), vehicle: Klucel (hydroxypropylcellulose) (HPC) 97 % of control | dose: 100.0 mg/kg/injection, schedule: Q01DX005 (ip), vehicle: Klucel (hydroxypropylcellulose) (HPC) 97 % of control | dose: 200.0 mg/kg/injection, schedule: Q01DX005 (ip), vehicle: Klucel (hydroxypropylcellulose) (HPC) 101 % of control

NCCCSc1ccccc1
inactive: dose: 60.0 mg/kg/injection, schedule: Q01DX005 (ip), vehicle: saline 99 % of control | dose: 120.0 mg/kg/injection, schedule: Q01DX005 (ip), vehicle: saline 97 % of control

CN(C)c1ccc(N=Nc2cc3c4ccccc4ccc3c3ccccc23)cc1
inactive: [4] 109 % of control | [5] 114 % of control | [6] 117 % of control

CCN1CC2(C)CCC(OC)C34C5CC6CCC(O)(C5C(=O)O6)C(C(O)C23)C14 (configuration not stated)
inactive: dose: 25.0 mg/kg/injection, schedule: Q01DX009 (ip), vehicle: Klucel (hydroxypropylcellulose) (HPC) 100 % of control | [4] 98 % of control | [5] 95 % of control

O=C1NN=C2CCCCCCCCCCC12 (configuration not stated)
inactive: [7] 96 % of control | [8] 89 % of control | [9] 89 % of control

CC(S)C(N)C(=O)O (configuration not stated)
inactive: [10] 100 % of control | [11] 95 % of control | [12] 105 % of control and 94 % of control | [13] 97 % of control | [14] 114 % of control and 90 % of control | dose: 400.0 mg/kg/injection, schedule: Q04DX002 (ip), vehicle: saline with Tween-80 114 % of control and 89 % of control

N=C(N)c1ccc(/C=C/c2cc3cc(C(=N)N)ccc3[nH]2)cc1
inactive: dose: 6.25 mg/kg/injection, schedule: Q04DX003 (ip), vehicle: saline 101 % of control and 108 % of control | dose: 12.5 mg/kg/injection, schedule: Q04DX003 (ip), vehicle: saline 99 % of control and 102 % of control | dose: 25.0 mg/kg/injection, schedule: Q04DX003 (ip), vehicle: saline 99 % of control and 101 % of control

O=C1N(Cl)C2(c3ccccc3)N(Cl)C(=O)N(Cl)C2(c2ccccc2)N1Cl (configuration not stated)
inactive: dose: 25.0 mg/kg/injection, schedule: Q04DX003 (ip), vehicle: Klucel (hydroxypropylcellulose) (HPC) 103 % of control | dose: 50.0 mg/kg/injection, schedule: Q04DX003 (ip), vehicle: Klucel (hydroxypropylcellulose) (HPC) 110 % of control

Cc1c2cc[n+]([O-])cc2c(C)c2c1oc1ccccc12
active: [8] 154 % of control | [9] 165 % of control and 173 % of control
inactive: [15] 115 % of control

O=C1CN(CN2CCOCC2)C(=O)CN1CN1CCOCC1
inactive: dose: 25.0 mg/kg/injection, schedule: Q01DX009 (ip), vehicle: saline 115 % of control | [10] 114 % of control

COc1ccc2c(c1OC)CC(=O)N1CCc3cc4c(cc3C(=O)C21)OCO4 (configuration not stated)
inactive: dose: 2.5 mg/kg/injection, schedule: Q01DX005 (ip), vehicle: saline + Tween-80 + alcohol 104 % of control | dose: 5.0 mg/kg/injection, schedule: Q01DX005 (ip), vehicle: saline + Tween-80 + alcohol 101 % of control | dose: 10.0 mg/kg/injection, schedule: Q01DX005 (ip), vehicle: saline + Tween-80 + alcohol 100 % of control | dose: 20.0 mg/kg/injection, schedule: Q01DX005 (ip), vehicle: saline + Tween-80 + alcohol 107 % of control

CSc1ncnc2c1ncn2C1OC(CO)C(O)OC1O (configuration not stated)
inactive: dose: 16.5 mg/kg/injection, schedule: Q01DX009 (ip), vehicle: saline with Tween-80 122 % of control | dose: 50.0 mg/kg/injection, schedule: Q04DX003 (ip), vehicle: saline with Tween-80 109 % of control | dose: 66.0 mg/kg/injection, schedule: Q04DX003 (ip), vehicle: saline with Tween-80 112 % of control | dose: 100.0 mg/kg/injection, schedule: Q04DX003 (ip), vehicle: saline with Tween-80 108 % of control

COc1cc2c(OC)cc1CCCC(=O)CCCc1cc(OC)c(cc1OC)CCCC(=O)CCC2
inactive: [1] 100 % of control | [2] 98 % of control | [3] 92 % of control

Clc1ccc(SSN2CCCCC2)cc1
inactive: [10] 92 % of control | [11] 97 % of control | [13] 96 % of control

Cc1ccc(NCCNCCO)c2c(=O)c3cc(O)ccc3sc12
inactive: [15] 103 % of control
active: dose: 6.25 mg/kg/injection, schedule: Q01DX009 (ip), vehicle: saline with Tween-80 150 % of control | dose: 12.5 mg/kg/injection, schedule: Q01DX009 (ip), vehicle: saline with Tween-80 156 % of control and 169 % of control

CN=C(N)NN=C(c1ccc(C)cc1)c1ccc(C)cc1
inactive: dose: 12.5 mg/kg/injection, schedule: Q04DX002 (ip), vehicle: saline with Tween-80 91 % of control | dose: 25.0 mg/kg/injection, schedule: Q04DX002 (ip), vehicle: saline with Tween-80 104 % of control | [12] 96 % of control | [14] 100 % of control

C[CH2][Pb]([CH2]C)([CH2]C)[N]1C(=O)c2ccccc2C1=O
inactive: dose: 1.56 mg/kg/injection, schedule: Q01DX009 (ip), vehicle: Klucel (hydroxypropylcellulose) (HPC) 110 % of control | dose: 3.12 mg/kg/injection, schedule: Q01DX009 (ip), vehicle: Klucel (hydroxypropylcellulose) (HPC) 118 % of control

COc1ccc(CCN2C(=O)C(=O)N(C)C2=O)cc1OC
inactive: [4] 90 % of control | [5] 96 % of control | [6] 102 % of control

CCOC(=O)C(N)(CO)Cc1ccccc1 (configuration not stated)
inactive: dose: 50.0 mg/kg/injection, schedule: Q01DX005 (ip), vehicle: saline 103 % of control | dose: 100.0 mg/kg/injection, schedule: Q01DX005 (ip), vehicle: saline 100 % of control | dose: 200.0 mg/kg/injection, schedule: Q01DX005 (ip), vehicle: saline 99 % of control

CC(=O)n1nc(Cl)c2cccnc2c1=O
inactive: [1] 98 % of control | [2] 99 % of control | [3] 107 % of control

OC(Cc1ccccc1)c1ccccc1 (configuration not stated)
inactive: dose: 31.25 mg/kg/injection, schedule: Q01DX009 (ip), vehicle: saline + Tween-80 + alcohol 107 % of control | dose: 62.5 mg/kg/injection, schedule: Q01DX009 (ip), vehicle: saline + Tween-80 + alcohol 100 % of control | dose: 100.0 mg/kg/injection, schedule: Q01DX009 (ip), vehicle: suspension in saline 104 % of control | dose: 125.0 mg/kg/injection, schedule: Q01DX009 (ip), vehicle: saline + Tween-80 + alcohol 98 % of control | dose: 200.0 mg/kg/injection, schedule: Q01DX009 (ip), vehicle: suspension in saline 98 % of control | dose: 250.0 mg/kg/injection, schedule: Q01DX009 (ip), vehicle: saline + Tween-80 + alcohol 102 % of control | dose: 400.0 mg/kg/injection, schedule: Q01DX009 (ip), vehicle: suspension in saline 98 % of control

N#CC1C(=O)NC(=S)NC1c1ccc(C2CC(=O)NC(=S)N2)cc1 (configuration not stated)
inactive: [7] 104 % of control | [8] 105 % of control | [9] 106 % of control
